Source: patent US7820379B2, “Process for high throughput screening of CpG-based immuno-agonist/antagonist” (Coley Pharmaceutical GmbH, priority 2000, dated 2010)

Legend:
Assay type in all cases: cell-based
human TLR9 [1] = target: T1, human TLR9 (Homo sapiens, UniProt Q9NR96, H530R/Q688R); assay: NF-κB-luciferase activation in 293 cells transfected with human TLR9 (293-hTLR9-luc); conditions: 12 hours
T1 construct: expressed in transfected cells
T1 sequence (Q9NR96 26-1032 H530R/Q688R): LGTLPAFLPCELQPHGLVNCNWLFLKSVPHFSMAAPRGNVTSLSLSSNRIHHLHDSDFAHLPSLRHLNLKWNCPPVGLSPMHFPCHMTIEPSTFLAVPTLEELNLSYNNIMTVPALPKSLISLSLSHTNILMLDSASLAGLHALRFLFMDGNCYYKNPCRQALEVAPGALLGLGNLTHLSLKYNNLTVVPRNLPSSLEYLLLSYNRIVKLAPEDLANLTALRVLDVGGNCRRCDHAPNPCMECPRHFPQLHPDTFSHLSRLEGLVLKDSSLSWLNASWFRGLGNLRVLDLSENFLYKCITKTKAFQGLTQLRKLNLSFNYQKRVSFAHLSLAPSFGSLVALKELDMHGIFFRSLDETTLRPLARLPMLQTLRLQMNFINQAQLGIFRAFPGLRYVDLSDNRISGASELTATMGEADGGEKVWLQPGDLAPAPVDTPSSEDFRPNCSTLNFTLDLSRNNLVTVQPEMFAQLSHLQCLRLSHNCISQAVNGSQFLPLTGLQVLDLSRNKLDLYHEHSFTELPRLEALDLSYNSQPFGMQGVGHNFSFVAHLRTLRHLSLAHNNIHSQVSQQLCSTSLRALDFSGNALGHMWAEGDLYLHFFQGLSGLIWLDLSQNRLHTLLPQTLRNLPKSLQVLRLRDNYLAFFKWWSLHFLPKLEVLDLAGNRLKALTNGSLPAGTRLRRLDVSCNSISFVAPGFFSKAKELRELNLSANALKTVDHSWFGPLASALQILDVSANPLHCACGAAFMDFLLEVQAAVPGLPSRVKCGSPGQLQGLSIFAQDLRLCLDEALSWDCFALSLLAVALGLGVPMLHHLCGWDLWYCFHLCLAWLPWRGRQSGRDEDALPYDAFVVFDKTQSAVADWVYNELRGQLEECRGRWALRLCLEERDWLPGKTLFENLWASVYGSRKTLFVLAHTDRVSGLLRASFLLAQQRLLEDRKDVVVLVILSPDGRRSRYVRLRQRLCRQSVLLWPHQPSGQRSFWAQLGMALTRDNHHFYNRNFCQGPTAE

murine TLR9 = target: T2, murine TLR9 (Mus musculus, UniProt Q9EQU3, L378S/Q579H/T325N/T573A/T867A); assay: NF-κB-luciferase activation in 293 cells transfected with murine TLR9 (293-mTLR9-luc); conditions: for EC50: ODN concentration of half-maximal activation, 293-mTLR9-luc cells, NF-κB-driven luciferase readout, 12 hours, read-out: 293-mTLR9 Kac
T2 construct: additional primers were designed for amplification of the complete mouse TLR9 cDNA; expressed in transfected cells
T2 sequence (Q9EQU3 26-1032 T325N/L378S/T573A/Q579H/T867A): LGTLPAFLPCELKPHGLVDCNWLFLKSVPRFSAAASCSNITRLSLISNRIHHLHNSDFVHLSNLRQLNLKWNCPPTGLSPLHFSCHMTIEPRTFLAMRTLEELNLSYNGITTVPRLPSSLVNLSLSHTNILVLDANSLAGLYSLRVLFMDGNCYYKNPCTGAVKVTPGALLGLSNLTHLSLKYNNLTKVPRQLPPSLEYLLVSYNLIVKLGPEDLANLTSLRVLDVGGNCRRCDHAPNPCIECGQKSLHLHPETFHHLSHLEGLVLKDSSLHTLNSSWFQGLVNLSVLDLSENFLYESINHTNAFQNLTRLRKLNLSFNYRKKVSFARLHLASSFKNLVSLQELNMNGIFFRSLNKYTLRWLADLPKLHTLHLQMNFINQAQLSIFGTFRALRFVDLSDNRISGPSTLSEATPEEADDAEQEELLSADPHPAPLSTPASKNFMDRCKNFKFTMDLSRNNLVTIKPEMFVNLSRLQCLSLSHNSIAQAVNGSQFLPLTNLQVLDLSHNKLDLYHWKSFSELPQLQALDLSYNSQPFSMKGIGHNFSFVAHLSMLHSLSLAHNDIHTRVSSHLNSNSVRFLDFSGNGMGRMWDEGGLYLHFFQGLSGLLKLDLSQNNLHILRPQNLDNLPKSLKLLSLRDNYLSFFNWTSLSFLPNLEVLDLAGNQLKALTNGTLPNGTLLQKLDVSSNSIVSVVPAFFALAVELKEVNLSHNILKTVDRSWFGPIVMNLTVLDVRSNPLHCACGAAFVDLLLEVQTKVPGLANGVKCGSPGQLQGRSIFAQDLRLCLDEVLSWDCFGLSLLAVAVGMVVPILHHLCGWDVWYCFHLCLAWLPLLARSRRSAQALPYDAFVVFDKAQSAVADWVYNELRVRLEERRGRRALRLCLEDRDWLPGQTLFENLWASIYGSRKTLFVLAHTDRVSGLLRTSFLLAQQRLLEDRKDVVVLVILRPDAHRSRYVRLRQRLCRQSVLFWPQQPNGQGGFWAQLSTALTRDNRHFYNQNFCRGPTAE
Text: Human fibroblast 293 cells were transiently transfected with mTLR9 and the NF-κB-luc construct (FIG. 2). Similar data was obtained for IL-8 production (not shown). Thus expression of TLR9 (human or mouse) in 293 cells results in a gain of function for CpG-DNA stimulation similar to hTLR4 reconstitution of LPS responses.
To generate stable clones expressing human TLR9, murine TLR9, or either TLR9 with the NF-κB-luc reporter plasmid, 293 cells were transfected in 10 cm plates (2×10^6 cells/plate) with 16 μg of DNA and selected with 0.7 mg/ml G418 (PAA Laboratories GmbH, Cölbe, Germany). The clones were also screened for IL-8 production or NF-κB-luciferase activity after stimulation with ODN. Four different types of clones were generated. • 293-hTLR9-luc: expressing human TLR9 and 6-fold NF-κB-luciferase reporter • 293-mTLR9-luc: expressing murine TLR9 and 6-fold NF-κB-luciferase reporter • 293-hTLR9: expressing human TLR9 • 293-mTLR9: expressing murine TLR9
Similar results were obtained utilizing IL-8 production with the stable clone 293-hTLR9. 293-mTLR9-luc were also stimulated with CpG-ODN (1668, 2 μM; […], SEQ ID NO:84), GpC-ODN (1668-GC, 2 μM; […], SEQ ID NO:85), Me-CpG-ODN (1668 methylated, 2 μM; TCCATGAZGTTCCTGATGCT, Z=5-methylcytidine, SEQ ID NO:207), LPS (100 ng/ml) or media, as measured by monitoring NF-κB activation (FIG. 5). Similar results were obtained utilizing IL-8 production with the stable clone 293-mTLR9. Results are representative of at least two independent experiments. […] These cells can be used for screening of optimal ligands for innate immune responses driven by TLR9 in multiple species.
Because stable TLR9 transfectants mirrored primary cell responsiveness to CpG-DNA (FIGS. 4 and 5), it was hypothesized that stable transfectants could potentially discern species-specific CpG-motifs through TLR9 receptors. Therefore 293-hTLR9-luc (expressing human TLR9 and 6-fold NF-κB-luc reporter), 293-mTLR9-luc (expressing murine TLR9 and 6-fold NF-κB-luc reporter), 293-hTLR9 (expressing human TLR9) and 293-mTLR9 (expressing murine TLR9) clones were tested for CpG-DNA motif responsiveness. […] Depicted are both NF-κB-driven luciferase and IL-8 production as readout. […] After lysis of the cells luciferase can be detected photometrically based on an enzymatic reaction by luciferase which creates photons. IL-8 production was monitored using enzyme-linked immunosorbent assay (ELISA). […] Results shown in FIG. 11 are representative of three independent experiments. Strikingly, CpG-motif sequence specificity was conferred in a species-specific manner by TLR9. Additionally, the half-maximal concentration for either 2006 or 1668 appears nearly the same as those determined on primary cells (compare FIG. 10 and FIG. 11).
(§1) Although 2006 and 1668 are discussed in terms of CpG-motif differences, they are very different in several aspects (see Table 5 for comparison). The lengths are different, 24 versus 20 nucleotides, and 2006 has four CG dinucleotides compared to one in 1668. Additional differences are the CG position relative to the 5′ and 3′ ends and also 5′ sequence differences. In order to determine if motif specificity is a quality of the motif and not the global sequence environment, for this experiment several sequences were produced holding these variables constant. As a starting point, the 1668 sequence was modified by converting the central C to T and the distal TG to CG, thereby creating a second CG in the resulting sequence 5000 (SEQ ID NO:130, Table 5). Then point nucleotide changes were made, progressing toward a 2006-like sequence, 5007 (SEQ ID NO:98). The ODN 5002 (SEQ ID NO:132) is most like 1668 with the exception that C's at positions 12 and 19 have been converted to T's. […]

human TLR9 [2] = target: T1, human TLR9; assay: NF-κB-luciferase activation in 293 cells transfected with human TLR9 (293-hTLR9-luc); conditions: ODN concentration of half-maximal activation; 293-hTLR9-luc cells, NF-κB-driven luciferase readout, 12 hours; read-out: 293-hTLR9 Kac
Text: Since NF-κB activation is central to the IL-1/TLR signal transduction pathway (Medzhitov R et al., Mol Cell 2:253-258 (1998); Muzio M et al., J Exp Med 187:2097-2101 (1998)), cells were transfected with hTLR9 or co-transfected with hTLR9 and a NF-κB-driven luciferase reporter construct. Human fibroblast 293 cells were transiently transfected with (FIG. 1A) hTLR9 and a six-times NF-κB-luciferase reporter plasmid (NF-κB-luc, kindly provided by Patrick Baeuerle, Munich, Germany) or (FIG. 1B) with hTLR9 alone. After stimulus with CpG-ODN (2006, 2 μM, […], SEQ ID NO:112), GpC-ODN (2006-GC, 2 μM, […], SEQ ID NO:118), LPS (100 ng/ml) or media, NF-κB activation by luciferase readout (8 h, FIG. 1A) or IL-8 production by ELISA (48 h, FIG. 1B) were monitored. Results are representative of three independent experiments.
To generate stable clones expressing human TLR9, murine TLR9, or either TLR9 with the NF-κB-luc reporter plasmid, 293 cells were transfected in 10 cm plates (2×10^6 cells/plate) with 16 μg of DNA and selected with 0.7 mg/ml G418 (PAA Laboratories GmbH, Cölbe, Germany). The clones were also screened for IL-8 production or NF-κB-luciferase activity after stimulation with ODN. Four different types of clones were generated. • 293-hTLR9-luc: expressing human TLR9 and 6-fold NF-κB-luciferase reporter • 293-mTLR9-luc: expressing murine TLR9 and 6-fold NF-κB-luciferase reporter • 293-hTLR9: expressing human TLR9 • 293-mTLR9: expressing murine TLR9 […]
Because stable TLR9 transfectants mirrored primary cell responsiveness to CpG-DNA (FIGS. 4 and 5), it was hypothesized that stable transfectants could potentially discern species-specific CpG-motifs through TLR9 receptors. Therefore 293-hTLR9-luc (expressing human TLR9 and 6-fold NF-κB-luc reporter), 293-mTLR9-luc (expressing murine TLR9 and 6-fold NF-κB-luc reporter), 293-hTLR9 (expressing human TLR9) and 293-mTLR9 (expressing murine TLR9) clones were tested for CpG-DNA motif responsiveness. […] Depicted are both NF-κB-driven luciferase and IL-8 production as readout. […] After lysis of the cells luciferase can be detected photometrically based on an enzymatic reaction by luciferase which creates photons. IL-8 production was monitored using enzyme-linked immunosorbent assay (ELISA). FIG. 11 depicts clones stimulated with ODN 2006 (filled circle), ODN 2006-GC (open circle), ODN 1668 (filled triangle) or ODN 1668-GC (open triangle) at indicated concentrations and NF-κB activation or IL-8 production were measured after 10 and 48 hours, respectively. Results shown in FIG. 11 are representative of three independent experiments. Strikingly, CpG-motif sequence specificity was conferred in a species-specific manner by TLR9. Additionally, the half-maximal concentration for either 2006 or 1668 appears nearly the same as those determined on primary cells (compare FIG. 10 and FIG. 11).
as §1

With “5′-HHHHHHHHHHHHHHWGGGGG-3′ (chemistry not given here) [blocking ODN, H=A, T, C; W=A, T]” the “blockade of CpG-ODN-induced NF-κB activation” value (human TLR9 [1]; 293-hTLR9-luc cells, CpG-ODN 0.5 μM, increasing concentrations of blocking ODN) was “sensitive to non-CpG-ODN blockade” and the “TNF-driven NF-κB signal” value (human TLR9 [1]; 293-hTLR9-luc cells, TNF-α 10 ng/ml, increasing concentrations of blocking ODN) was “not diminished”.
For “TCCATGACGTCCTTGATGTT (listed as DNA, chemistry not fully specified) [ODN 5009]”, the 293-mTLR9 responsiveness (murine TLR9; ACGTT versus ACGTC (5002 versus 5009)) was “completely destroyed 293-mTLR9 responsiveness” and the EC50 (murine TLR9) was greater than 10 µM.
“TCCATGACGTTCTTGATGTT (listed as DNA, chemistry not fully specified) [ODN 5002]” was tested, and the EC50 (human TLR9 [2]) was 7 µM.
For `CO/C1=C\C(C)=C\[C@@H](C)[C@@H](O)[C@@H](C)C/C(C)=C/C=C/[C@H](OC)[C@@H]([C@@H](C)[C@@H](O)[C@H](C)[C@@]2(O)C[C@@H](O)[C@H](C)[C@@H](C(C)C)O2)OC1=O` [Bafilomycin A], the “CpG-ODN induction of NF-κB” value (human TLR9 [1]; 293-hTLR9-luc cells preincubated 30 min with 10 nM, CpG-ODN 2006 0.5 μM) was “fully blocks” and the “IL-1 and TNF induction of NF-κB” value (human TLR9 [1]; 293-hTLR9-luc cells preincubated 30 min with 10 nM, IL-1 10 ng/ml or TNF-α 10 ng/ml) was “unaffected”.
Work on “TCCATGACGTCATTGATGTT (listed as DNA, chemistry not fully specified) [ODN 5010]” yielded an EC50 (murine TLR9) greater than 10 µM.
“TCCATGACGTTTTTGATGTT (listed as DNA, chemistry not fully specified) [ODN 5003]” showed an EC50 (human TLR9 [2]) of 10 µM.
For “TCCATGACGTTATTGATGTT (listed as DNA, chemistry not fully specified) [ODN 5008]”, the EC50 (murine TLR9) was 0.04 µM.
